# US20140024527A1, “HERBICIDAL PYRAZINONES” (E I DU DE NEMOURS AND COMPANY, priority 2011, published 2014)
# Assays:
# Assay in all cases: Test B postemergence
# Type in all cases: in vivo
# Details in all cases: scale 0 to 100
# [1] = test system: Italian ryegrass (Lolium multiflorum)
# Source text: (§1) Seeds of plant species selected from blackgrass (Alopecurus myosuroides), downy bromegrass (Bromus tectorum), green foxtail (Setaria viridis), Italian ryegrass (Lolium multiflorum), wheat (Triticum aestivum), wild oat (Avena fatua), galium (Galium aparine), bermudagrass (Cynodon dactylon), Surinam grass (Brachiaria decumbens), cocklebur (Xanthium strumarium), corn (Zea mays), large crabgrass (Digitaria sanguinalis), woolly cupgrass (Eriochloa villosa), giant foxtail (Setaria faberii), goosegrass (Eleusine indica), johnsongrass (Sorghum halepense), kochia (Kochia scoparia), lambsquarters (Chenopodium album), morningglory (Ipomoea coccinea), yellow nutsedge (Cyperus esculentus), pigweed (Amaranthus retroflexus), ragweed (Ambrosia elatior), soybean (Glycine max), velvetleaf (Abutilon theophrasti), barley (Hordeum vulgare), canarygrass (Phalaris minor), chickweed (Stellaria media), deadnettle (Lamium amplexicaule) and windgrass (Apera spica-venti) were planted in pots containing Redi-Earth® planting medium (Scotts Company, Marysville, Ohio, USA) comprising spaghnum peat moss, vermiculite, wetting agent and starter nutrients and treated postemergence with test compounds formulated in a non-phytotoxic solvent mixture which included a surfactant. Plants ranged in height from 2 to 18 cm (1- to 4-leaf stage).
# (§2) Treated plants and controls were maintained in a greenhouse for 13 to 15 days, after which time all species were compared to controls and visually evaluated. Plant response ratings, summarized in Table B, are based on a scale of 0 to 100 where 0 is no effect and 100 is complete control. A dash (-) response means no test result.
# [2] = test system: Surinam grass (Brachiaria decumbens)
# Source text: as §1, §2
# barley (Hordeum vulgare) = test system: barley (Hordeum vulgare)
# Source text: as §1, §2
# [3] = test system: bermudagrass (Cynodon dactylon)
# Source text: as §1, §2
# [4] = test system: blackgrass (Alopecurus myosuroides)
# Source text: as §1, §2
# [5] = test system: chickweed (Stellaria media)
# Source text: as §1, §2
# [6] = test system: cocklebur (Xanthium strumarium)
# Source text: as §1, §2
# corn (Zea mays) = test system: corn (Zea mays)
# Source text: as §1, §2
# [7] = test system: deadnettle (Lamium amplexicaule)
# Source text: as §1, §2
# [8] = test system: downy bromegrass (Bromus tectorum)
# Source text: as §1, §2
# galium (Galium aparine) = test system: galium (Galium aparine)
# Source text: as §1, §2
# [9] = test system: giant foxtail (Setaria faberii)
# Source text: as §1, §2
# [10] = test system: green foxtail (Setaria viridis)
# Source text: as §1, §2
# [11] = test system: johnsongrass (Sorghum halepense)
# Source text: as §1, §2
# kochia (Kochia scoparia) = test system: kochia (Kochia scoparia)
# Source text: as §1, §2
# [12] = test system: morningglory (Ipomoea coccinea)
# Source text: as §1, §2
# [13] = test system: pigweed (Amaranthus retroflexus)
# Source text: as §1, §2
# [14] = test system: ragweed (Ambrosia elatior)
# Source text: as §1, §2
# soybean (Glycine max) = test system: soybean (Glycine max)
# Source text: as §1, §2
# [15] = test system: velvetleaf (Abutilon theophrasti)
# Source text: as §1, §2
# wild oat (Avena fatua) = test system: wild oat (Avena fatua)
# Source text: as §1, §2
# [16] = test system: windgrass (Apera spica-venti)
# Source text: as §1, §2
# [17] = test system: yellow nutsedge (Cyperus esculentus)
# Source text: as §1, §2
compound,measurement,setting,value
"COCCn1c(-c2cccc(F)c2)c(Cl)nc(C(=O)C2=C(O)CCCC2=O)c1=O [Compound 4, 5-chloro-6-(3-fluorophenyl)-3-[(2-hydroxy-6-oxo-1-cyclohexen-1-yl)carbonyl]-1-(2-methoxyethyl)-2(1H)pyrazinone]","Plant response rating, Ryegrass, Italian",[1]; 31 g ai/ha,0
same,"Plant response rating, Ryegrass, Italian",[1]; 62 g ai/ha,0
same,"Plant response rating, Ryegrass, Italian",[1]; 125 g ai/ha,0
same,"Plant response rating, Ryegrass, Italian",[1]; 250 g ai/ha,10
same,"Plant response rating, Surinam Grass",[2]; 31 g ai/ha,55
same,"Plant response rating, Surinam Grass",[2]; 62 g ai/ha,60
same,"Plant response rating, Surinam Grass",[2]; 125 g ai/ha,65
same,"Plant response rating, Surinam Grass",[2]; 250 g ai/ha,70
same,"Plant response rating, Barley",barley (Hordeum vulgare); 31 g ai/ha,0
same,"Plant response rating, Barley",barley (Hordeum vulgare); 62 g ai/ha,20
same,"Plant response rating, Barley",barley (Hordeum vulgare); 125 g ai/ha,20
same,"Plant response rating, Barley",barley (Hordeum vulgare); 250 g ai/ha,30
same,"Plant response rating, Bermudagrass",[3]; 31 g ai/ha,5
same,"Plant response rating, Bermudagrass",[3]; 62 g ai/ha,20
same,"Plant response rating, Bermudagrass",[3]; 125 g ai/ha,35
same,"Plant response rating, Bermudagrass",[3]; 250 g ai/ha,40
same,"Plant response rating, Blackgrass",[4]; 31 g ai/ha,5
same,"Plant response rating, Blackgrass",[4]; 62 g ai/ha,5
same,"Plant response rating, Blackgrass",[4]; 125 g ai/ha,5
same,"Plant response rating, Blackgrass",[4]; 250 g ai/ha,10
same,"Plant response rating, Chickweed",[5]; 31 g ai/ha,5
same,"Plant response rating, Chickweed",[5]; 62 g ai/ha,10
same,"Plant response rating, Chickweed",[5]; 125 g ai/ha,15
same,"Plant response rating, Chickweed",[5]; 250 g ai/ha,45
same,"Plant response rating, Cocklebur",[6]; 31 g ai/ha,5
same,"Plant response rating, Cocklebur",[6]; 62 g ai/ha,25
same,"Plant response rating, Cocklebur",[6]; 125 g ai/ha,65
same,"Plant response rating, Cocklebur",[6]; 250 g ai/ha,85
same,"Plant response rating, Corn",corn (Zea mays); 31 g ai/ha,0
same,"Plant response rating, Corn",corn (Zea mays); 62 g ai/ha,20
same,"Plant response rating, Corn",corn (Zea mays); 125 g ai/ha,35
same,"Plant response rating, Corn",corn (Zea mays); 250 g ai/ha,55
same,"Plant response rating, Deadnettle",[7]; 31 g ai/ha,15
same,"Plant response rating, Deadnettle",[7]; 62 g ai/ha,15
same,"Plant response rating, Bromegrass, Downy",[8]; 31 g ai/ha,0
same,"Plant response rating, Bromegrass, Downy",[8]; 62 g ai/ha,10
same,"Plant response rating, Bromegrass, Downy",[8]; 125 g ai/ha,15
same,"Plant response rating, Bromegrass, Downy",[8]; 250 g ai/ha,15
same,"Plant response rating, Galium",galium (Galium aparine); 31 g ai/ha,50
same,"Plant response rating, Galium",galium (Galium aparine); 62 g ai/ha,50
same,"Plant response rating, Foxtail, Giant",[9]; 31 g ai/ha,40
same,"Plant response rating, Foxtail, Giant",[9]; 62 g ai/ha,60
same,"Plant response rating, Foxtail, Giant",[9]; 125 g ai/ha,70
same,"Plant response rating, Foxtail, Giant",[9]; 250 g ai/ha,75
same,"Plant response rating, Foxtail, Green",[10]; 31 g ai/ha,35
same,"Plant response rating, Foxtail, Green",[10]; 62 g ai/ha,35
same,"Plant response rating, Foxtail, Green",[10]; 125 g ai/ha,35
same,"Plant response rating, Foxtail, Green",[10]; 250 g ai/ha,70
same,"Plant response rating, Johnsongrass",[11]; 31 g ai/ha,60
same,"Plant response rating, Johnsongrass",[11]; 62 g ai/ha,60
same,"Plant response rating, Johnsongrass",[11]; 125 g ai/ha,75
same,"Plant response rating, Johnsongrass",[11]; 250 g ai/ha,85
same,"Plant response rating, Kochia",kochia (Kochia scoparia); 31 g ai/ha,10
same,"Plant response rating, Kochia",kochia (Kochia scoparia); 62 g ai/ha,45
same,"Plant response rating, Kochia",kochia (Kochia scoparia); 125 g ai/ha,55
same,"Plant response rating, Kochia",kochia (Kochia scoparia); 250 g ai/ha,90
same,"Plant response rating, Morningglory",[12]; 31 g ai/ha,90
same,"Plant response rating, Morningglory",[12]; 62 g ai/ha,95
same,"Plant response rating, Morningglory",[12]; 125 g ai/ha,95
same,"Plant response rating, Morningglory",[12]; 250 g ai/ha,95
same,"Plant response rating, Pigweed",[13]; 31 g ai/ha,65
same,"Plant response rating, Pigweed",[13]; 62 g ai/ha,80
same,"Plant response rating, Pigweed",[13]; 125 g ai/ha,90
same,"Plant response rating, Pigweed",[13]; 250 g ai/ha,98
same,"Plant response rating, Ragweed",[14]; 31 g ai/ha,50
same,"Plant response rating, Ragweed",[14]; 62 g ai/ha,65
same,"Plant response rating, Ragweed",[14]; 125 g ai/ha,75
same,"Plant response rating, Ragweed",[14]; 250 g ai/ha,90
same,"Plant response rating, Soybean",soybean (Glycine max); 31 g ai/ha,55
same,"Plant response rating, Soybean",soybean (Glycine max); 62 g ai/ha,60
same,"Plant response rating, Soybean",soybean (Glycine max); 125 g ai/ha,75
same,"Plant response rating, Soybean",soybean (Glycine max); 250 g ai/ha,75
same,"Plant response rating, Velvetleaf",[15]; 31 g ai/ha,50
same,"Plant response rating, Velvetleaf",[15]; 62 g ai/ha,50
same,"Plant response rating, Velvetleaf",[15]; 125 g ai/ha,60
same,"Plant response rating, Velvetleaf",[15]; 250 g ai/ha,75
same,"Plant response rating, Oat, Wild",wild oat (Avena fatua); 31 g ai/ha,5
same,"Plant response rating, Oat, Wild",wild oat (Avena fatua); 62 g ai/ha,30
same,"Plant response rating, Oat, Wild",wild oat (Avena fatua); 125 g ai/ha,30
same,"Plant response rating, Oat, Wild",wild oat (Avena fatua); 250 g ai/ha,40
same,"Plant response rating, Windgrass",[16]; 31 g ai/ha,5
same,"Plant response rating, Windgrass",[16]; 62 g ai/ha,30
same,"Plant response rating, Windgrass",[16]; 125 g ai/ha,40
same,"Plant response rating, Windgrass",[16]; 250 g ai/ha,65
same,"Plant response rating, Nutsedge, Yellow",[17]; 31 g ai/ha,5
same,"Plant response rating, Nutsedge, Yellow",[17]; 62 g ai/ha,20
same,"Plant response rating, Nutsedge, Yellow",[17]; 125 g ai/ha,45
same,"Plant response rating, Nutsedge, Yellow",[17]; 250 g ai/ha,65
